Data on two compounds can be found in article PMC11613437, “Prioritization of Eleven-Nineteen-Leukemia Inhibitors as Orally Available Drug Candidates for Acute Myeloid Leukemia” (Journal of Medicinal Chemistry, 2024).

The target of data set [1] is T1, ENL YEATS (Homo sapiens, UniProt Q03111).
T1 construct: final concentrations of 100 nM His-ENL YEATS, 100 nM Biotin-ENL-S1
T1 sequence (Q03111 1-138 limits assumed): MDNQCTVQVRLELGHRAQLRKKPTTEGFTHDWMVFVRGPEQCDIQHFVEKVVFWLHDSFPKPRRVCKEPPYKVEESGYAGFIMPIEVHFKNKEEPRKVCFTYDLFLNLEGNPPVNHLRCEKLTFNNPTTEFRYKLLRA
As to the kind of experiment: AlphaScreen assay with biotinylated ENL-S1 peptide. As to conditions: inhibition of ENL YEATS binding to ENL-S1 peptide; mean ± SD, n = 3; read-out: Alpha IC50 (nM) for ENL YEATS. The procedure: The AlphaScreen assay was carried out in 384-well plates. Manual assay setup was performed in a 40 μL reaction buffer (50 mM HEPES pH 7.4, 100 mM NaCl, 0.1% bovine serum albumin, and 0.05% CHAPS) with final concentrations of 100 nM His-ENL YEATS, 100 nM Biotin-ENL-S1, and 20 μg/mL of AlphaScreen donor and acceptor beads. The protein, peptide, and compounds were mixed and incubated for 1 h at room temperature and then incubated for 30 min in dark after adding the α beads. AlphaScreen-signals were detected by a multimode microplate reader (BioTeK Synergy Neo2) equipped with an Alpha-laser (PerkinElmer).

Data set [2] in a line: Cell toxicity assay (CCK-8), HEK293T. As to conditions: human, HEK293T cells; 72 h (3-days) treatment, n = 3; read-out: CC50 HEK293T (Cellular IC50, 3-days incubation). Type of data set: cell-based. The procedure:
Approximately 1 × 10^4 JURKAT, MOLM-13, MV4-11 and HEK293T cells in RPMI 1640 (no phenol red) (100 μL) were added to a 96-well plate and treated with DMSO or a compound at indicated concentrations for 72 h or 8 days. Cell viability was measured using the CCK-8 kit (Abcam, ab228554) according to the manufacturer’s instructions.

Data set [3] relates to MOLM-13 cells. Nature of the data set: Anti-proliferation assay, MOLM-13. It is filed as cell-based. As to conditions: Homo sapiens, MOLM-13, 336 h, approximately 2 weeks, read-out: inhibition of MOLM-13 cell proliferation. The protocol: (§1) Cell proliferation assays were carried out in a 96-well tissue culture plate at 2 × 10^4 cells/well for all cell lines except in 200 μL with a compound added as 1:1000 dilution of DMSO stocks in triplicate. Culture density was determined every 3–4 days using the countess automated cell counter, after which 2 × 10^4 live cells were reseeded in fresh media and compound. The cumulative cell count was achieved by back calculation.

Data set [4] deals with MV4-11 cells. As to the kind of experiment: Anti-proliferation assay, MV4-11. As to conditions: Homo sapiens, MV4-11, 336 h, approximately 2 weeks, read-out: inhibition of MV4-11 cell proliferation. It is filed as cell-based. The procedure:
as §1

For data set [5], the system named is MOLM-13 and MV4-11 cells. Nature of the data set: Cell cycle analysis. As to conditions: 72 h treatment. Type of data set: cell-based. The procedure:
For cell cycle analysis, 5 × 10^6 cells were cultured at 2 mL/well in a 6-well plate treated in a ratio of 1:1000 with compound stocks in DMSO or 1:1000 with DMSO in triplicate. Cell cycle staining was performed by using a cell cycle analysis kit (Abcam, ab287852) and treated according to the protocol provided. The signal was analyzed by flow cytometry and the cytometry results were analyzed by CytExpert software.

For data set [6], the target named is T2, ENL (Homo sapiens, UniProt Q03111).
T2 construct: CETSAs of ENL in MOLM-13 (top) and MV4-11 (bottom) cells; endogenous in cells; host or cells: MOLM-13 and MV4-11
T2 sequence (Q03111 1-559): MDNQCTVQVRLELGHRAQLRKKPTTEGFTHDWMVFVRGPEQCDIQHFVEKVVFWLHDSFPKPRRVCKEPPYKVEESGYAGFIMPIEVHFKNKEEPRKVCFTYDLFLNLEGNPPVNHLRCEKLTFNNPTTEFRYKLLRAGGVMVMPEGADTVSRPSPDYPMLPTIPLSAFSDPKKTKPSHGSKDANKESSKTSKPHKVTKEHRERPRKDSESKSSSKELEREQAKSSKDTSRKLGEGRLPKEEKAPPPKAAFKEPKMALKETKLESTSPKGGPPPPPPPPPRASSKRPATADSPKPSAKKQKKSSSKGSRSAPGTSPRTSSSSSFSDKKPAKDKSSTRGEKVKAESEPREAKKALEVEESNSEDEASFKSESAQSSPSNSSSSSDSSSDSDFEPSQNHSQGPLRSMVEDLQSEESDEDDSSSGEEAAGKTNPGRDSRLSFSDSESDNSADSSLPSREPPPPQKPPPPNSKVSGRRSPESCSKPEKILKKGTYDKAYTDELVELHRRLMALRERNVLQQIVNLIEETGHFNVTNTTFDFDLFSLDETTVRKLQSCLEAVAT
As to the kind of experiment: Cellular thermal shift assay (CETSA). It is filed as cell-based. As to conditions: MOLM-13 and MV4-11 cells, 10 μM, 3 and 6 h. The protocol: MOLM-13 and MV4-11 were incubated with 10 μM of inhibitor 13 for 3 and 6 h, respectively. The cells were then collected and washed with PBS 3 times. The cell pellets were resuspended in PBS-containing protease inhibitors and aliquoted into PCR microtubes (approximately 3 million cells in 54 μL). Cells were heated at indicated temperatures for 3 min in a thermal cycler (Bio-Rad) and then incubated at room temperature for 2 min. A total of 6 μL of 10× cell lysis buffer (8% NP-40, 50% glycerol, and 10 mM dithiothreitol) was added to each sample before subjecting the sample to three freeze–thaw cycles by liquid nitrogen and 37 °C water bath incubations to lyse the cells. The cell lysates were centrifuged at 13,000 rpm at 4 °C for 10 min, and the supernatants were analyzed using SDS-PAGE and Western blotting.

Data set [7] deals with HOXA9, HOXA10, MEIS1, MYB and MYC. As to the kind of experiment: qRT-PCR of ENL target genes. Type of data set: cell-based. As to conditions: MOLM-13 and MV4-11 cells, 72 h, concentrations as low as 1.0 μM. The procedure: Total RNA was extracted using the RNeasy plus kit (Qiagen, 74034) and reverse-transcribed using an iScript cDNA synthesis kit (Bio-Rad, 1708890). Quantitative real-time PCR (qRT-PCR) analyses were performed as described previously using PowerUp SYBR Green PCR Master Mix (Thermo Fisher, A25742) and the Bio-Rad CFX96 real-time PCR detection system. Gene expressions were calculated following normalization to β2-microglobulin (B2M) levels using the comparative Ct (cycle threshold) method. The primer pairs are as follows. HOXA9: forward 5′-GTATAG-[…]-3′, reverse 5′-[…]-3′. MEIS1: forward 5′-[…]-3′, reverse 5′ […]-AGCAAG-3′. MYB: forward 5′-[…]-3′, reverse 5′-[…]-3′, MYC: forward 5′-[…]-AGGT-3′, reverse 5′-TTT-[…]-3′. B2M: forward 5′-[…]-3′ reverse 5′-[…]-3′.
On the technique in general: Quantitative PCR measures a nucleic acid by following its amplification.

For orientation: IC50 means the concentration at which inhibition is half-maximal. Regarding `CC(C)[C@H]1CCN1Cc1cc2cnc(NC(=O)c3ccc4nncn4c3)cc2[nH]1` [SR-C-107 (R), (R)-N-(2-((2-Isopropylazetidin-1-yl)methyl)-1H-pyrrolo[3,2-c]pyridin-6-yl)-[1,2,4]triazolo[4,3-a]pyridine-6-carboxamide], the IC50 in data set [1] is 40 nM. Besides, in data set [2], the half-maximal inhibitory concentration (IC50) at 72 h was over 64 µM. Besides, the inhibition at 1 µM was about 90% in data set [3] and about 70% in data set [4]. The “cell cycle: G1 phase” value in data set [5] is reported as “increase in the G1 phase”. Further, in data set [6], the “CETSA: thermal stability of ENL vs DMSO at elevated temperatures” value is reported as “higher abundance of ENL”. Also, in data set [7], the “expression of ENL target genes” value is “effectively suppress the expression of these genes”.

As to `CC(C)C1CCN1Cc1ccc(CNC(=O)c2ccc3nncn3c2)cc1` (stereo not shown) [inhibitor 13], the IC50 in data set [1] was found to be 1260 ± 128 nM. The IC50 at 72 h in data set [2] was over 64 µM. Further, the inhibition at 1 µM was 30% in data set [3] and 41% in data set [4]. The inhibition at 10 µM in data set [3] (10 μM) is 85%; in data set [4] (10 μM) it was 75%. Besides, in data set [5], the “cell cycle: G1 phase” value is “increase in the G1 phase”. Besides, the “CETSA: thermal stability of ENL vs DMSO at elevated temperatures” value in data set [6] is reported as “higher abundance of ENL”. In data set [7], the “expression of ENL target genes” value is recorded as “effectively suppress the expression of these genes”.
